ChEMBL document CHEMBL1201862, “PubChem BioAssay data set” (2004)
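Test compounds were applied to cells in 96-well plates for 48 hours at 5 doses. GI50 is the concentration that inhibits growth by half.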 Calls of active or inactive are those of the source. Rule as the data show it: active = GI50 up to about 1.1 µM and inactive = higher.

Key:
Assay in all cases: NCI anticancer screen, dose series, 48 h
DU-145 = system: DU-145
SK-MEL-5 = system: SK-MEL-5
UACC-257 = system: UACC-257
MCF7 = system: MCF7
K562 = system: K562
UO-31 = system: UO-31
EKVX = system: EKVX
SN12C = system: SN12C
SR = system: SR
M14 = system: M14
HL-60 = system: HL-60
NCI-H460 = system: NCI-H460
IGROV-1 = system: IGROV-1
NCI-H522 = system: NCI-H522
ACHN = system: ACHN
RXF 393 = system: RXF 393
HOP-92 = system: HOP-92
RPMI-8226 = system: RPMI-8226
HT-29 = system: HT-29
UACC-62 = system: UACC-62

Measured: GI50

C=C1C(=O)O[C@H]2[C@H]3O[C@@H](C[C@@H]12)[C@](C)(O)CC[C@@H]1O[C@@]1(C)CCC[C@H]3C
inactive: DU-145 12.6 µM | SK-MEL-5 14.7 µM | UACC-257 22.9 µM | MCF7 21.4 µM | K562 23 µM | UO-31 22.2 µM | EKVX 15.6 µM | SN12C 20.3 µM | SR 16.5 µM | M14 12 µM | HL-60 27 µM | NCI-H460 24.8 µM | IGROV-1 14.7 µM | NCI-H522 18.1 µM | ACHN 15.5 µM | RXF 393 13 µM | HOP-92 16.4 µM | RPMI-8226 47.2 µM | HT-29 25.6 µM | UACC-62 16.5 µM
